According to patent publication US11168364B2, “Method and system for sequencing nucleic acids” (priority 2016, dated 2021):
Like-named read-outs stand apart in the source and are kept apart here.

Legend:
[1] = target: Klenow (3′→5′ exo(−)) fragment of E. coli DNA polymerase (Escherichia coli, UniProt P00582, D355A/E357A)
[2] = target: T1, HIV reverse transcriptase (Human immunodeficiency virus type 1 group M subtype B, UniProt P03366); experiment: Biolayer interferometry binding of HIV RT, dNTP and NNRTI to primer-template biosensor (Example 8); parameters: species or system HIV-1; conditions: 100 μM dNTP, 100 nM HIV RT, association phase
T1 construct: Recombinant purified HIV reverse transcriptase (HIV RT) was from Worthington Biochemical Corp; purchased Worthington Biochemical Corp (Lakewood, N.J.)
Method: Uncompetitive NNRTI compounds (Pitta et al., J. Enzyme Inhib. Med. Chem. 28(10): 113-22 (2013)), which is incorporated by reference herein in its entirety), were from Epigen Biosciences, Inc. (San Diego, Calif.). NNRTI compounds 7 (3-4-chloro-benzo[d]thiazol-2-yl)-2-(2-chloro-6-fluorophenyl)thiazolidin-4-one) and 18 (3-(6-ethoxy-benzo[d]thiazol-2-yl)-2-(2-chloro-6-fluorophenyl)thiazolidin-4-one) were dissolved in dimethylsulfoxide (DMSO) to concentrations of 25.0 mM and 15.0 mM, respectively. Recombinant purified HIV reverse transcriptase (HIV RT) was from Worthington Biochemical Corp (Lakewood, N.J.). Ultra-pure bovine serum albumin (BSA) was from Ambion (Foster City, Calif.). […] Primer-template duplex was diluted (100 μM) into Annealing Buffer. Immediately before use, HIV Reverse Transcriptase was pre-diluted into Enzyme Diluent (50 mM Tris buffer (pH 8.0), 8 mM MgCl2). […] NNRTI compounds were pre-diluted with DMSO immediately before being spiked into Binding Buffer. Reaction Buffer was Binding Buffer without NNRTI, dNTP or HIV RT enzyme. […] Biosensors were transferred to Binding Buffer containing HIV RT and dCTP+NNRTI (association phase) followed by Reaction Buffer (dCTP incorporation and dissociation phase). […] Cycles of binding and incorporation were repeated multiple times. […]

[3] = system: Nucleic Acid:Polymerase Complex; experiment: Stabilization of nucleic acid:polymerase complex in wash buffer (Example 6); format: binding; conditions: 3.5 mM Sr2+ in wash buffer (LS buffer)
Method: To minimize the possibility of multiple incorporations in a homopolymer region, a wash step can be performed before incorporation. Metal cations such as calcium and strontium can stabilize the polymerase complex (like magnesium), but cannot support catalysis of the phosphodiester bond which results in incorporation of the nucleotide. In this experiment, varying concentrations of SrCl2 (0 mM-14 mM) were added to the wash buffer (LS buffer).

Klenow = Klenow (Escherichia coli, UniProt P00582); experiment: Label-free optical detection of Klenow binding with magnesium in the examination step (Example 1); conditions: Polymerase Buffer with 10 mM MgCl2; 150 nM Klenow; 100 μM dNTP; template base T
Klenow, sequence (P00582 324-928): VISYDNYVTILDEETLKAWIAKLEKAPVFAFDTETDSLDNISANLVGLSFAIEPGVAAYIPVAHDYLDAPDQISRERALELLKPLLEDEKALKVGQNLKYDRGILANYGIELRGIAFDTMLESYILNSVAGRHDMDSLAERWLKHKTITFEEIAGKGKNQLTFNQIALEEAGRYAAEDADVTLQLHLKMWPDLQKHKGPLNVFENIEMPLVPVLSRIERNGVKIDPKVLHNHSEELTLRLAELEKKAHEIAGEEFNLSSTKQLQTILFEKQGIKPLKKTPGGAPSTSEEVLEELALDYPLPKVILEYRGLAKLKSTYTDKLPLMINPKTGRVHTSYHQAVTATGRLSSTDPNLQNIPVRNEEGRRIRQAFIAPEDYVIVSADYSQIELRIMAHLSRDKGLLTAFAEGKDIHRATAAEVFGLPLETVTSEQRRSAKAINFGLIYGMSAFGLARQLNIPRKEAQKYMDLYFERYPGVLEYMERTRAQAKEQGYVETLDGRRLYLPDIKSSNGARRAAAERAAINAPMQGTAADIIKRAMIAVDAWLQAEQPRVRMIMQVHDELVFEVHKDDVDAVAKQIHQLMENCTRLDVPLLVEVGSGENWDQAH

[4] = divalent cation 2.0 mM (CoCl2 1.0 mM) in Binding Buffer, 100 μM dCTP
[5] = divalent cation 2.0 mM (CoCl2 1.0 mM), 100 μM dCTP

Klenow (3′→5′ exo(−)) fragment of E. coli DNA polymerase, sequence (P00582 324-928 D355A/E357A limits assumed): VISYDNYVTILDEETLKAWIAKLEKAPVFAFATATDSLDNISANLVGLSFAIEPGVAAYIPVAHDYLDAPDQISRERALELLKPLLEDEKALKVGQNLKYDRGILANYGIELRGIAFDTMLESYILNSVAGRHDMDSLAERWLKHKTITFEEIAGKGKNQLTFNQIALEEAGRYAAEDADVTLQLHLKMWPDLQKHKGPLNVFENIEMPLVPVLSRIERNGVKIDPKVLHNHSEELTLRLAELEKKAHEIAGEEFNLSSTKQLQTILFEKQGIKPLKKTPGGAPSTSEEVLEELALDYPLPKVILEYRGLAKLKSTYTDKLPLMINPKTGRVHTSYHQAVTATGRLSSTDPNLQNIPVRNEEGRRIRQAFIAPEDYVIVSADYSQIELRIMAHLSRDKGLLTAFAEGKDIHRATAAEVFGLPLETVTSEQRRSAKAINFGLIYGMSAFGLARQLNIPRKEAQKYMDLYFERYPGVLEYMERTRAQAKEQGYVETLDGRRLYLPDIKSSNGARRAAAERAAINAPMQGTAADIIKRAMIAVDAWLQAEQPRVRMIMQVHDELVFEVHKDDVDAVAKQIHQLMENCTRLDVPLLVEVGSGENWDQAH

[Cl-].[Cl-].[Zn+2] [Zn2+, zinc chloride]
binding of Klenow exo(−) and dCTP to biosensor coated with ssDNA primer-template [1, 4]: transient peak | nucleotide incorporation by Klenow exo(−) in the absence of Mg2+ [1, 5]: complete nucleotide incorporation

[Ba+2].[Cl-].[Cl-] [BaCl2, barium chloride]
binding of Klenow exo(−) and dCTP to biosensor coated with ssDNA primer-template [1, 4]: bound strongly

manganese chloride [Mn2+]
binding of Klenow exo(−) and dCTP to biosensor coated with ssDNA primer-template [1, 4]: flat peak | nucleotide incorporation by Klenow exo(−) in the absence of Mg2+ [1, 5]: complete nucleotide incorporation

CCOc1ccc2nc(N3C(=O)CSC3c3c(F)cccc3Cl)sc2c1 (centres unmarked) [NNRTI compound 18, 3-(6-ethoxy-benzo[d]thiazol-2-yl)-2-(2-chloro-6-fluorophenyl)thiazolidin-4-one]
binding of HIV reverse transcriptase and correct dNTP to biosensor coated with primer-template ([2]; NNRTI 80 μM): distinct peaks for binding

[Cl-].[Cl-].[Sr+2] [SrCl2, Strontium chloride]
binding of Klenow exo(−) and dCTP to biosensor coated with ssDNA primer-template [1, 4]: bound strongly | stability of polymerase complex in wash buffer [3]: much more stable

Nc1ccn([C@H]2C[C@H](O)[C@@H](COP(=O)(O)OP(=O)(O)OP(=O)(O)O)O2)c(=O)n1 [dCTP, 2′-deoxycytidine-5′-triphosphate]
pre-steady state rate constant (Klenow): 0.0084

[Cl][Cu][Cl] [Cu2+, copper(II) chloride]
binding of Klenow exo(−) and dCTP to biosensor coated with ssDNA primer-template [1]: transient peak

[Ca+2].[Cl-].[Cl-] [Ca2+, calcium chloride]
binding of Klenow exo(−) and dCTP to biosensor coated with ssDNA primer-template [1]: transient peak | nucleotide incorporation by Klenow exo(−) in the absence of Mg2+ [1]: complete nucleotide incorporation

N.N.O=S(=O)(O)O [ammonium sulfate]
binding of Klenow exo(−) and dCTP to biosensor coated with ssDNA primer-template [1, 4]: bound strongly

O=C1CSC(c2c(F)cccc2Cl)N1c1nc2c(Cl)cccc2s1 (centres unmarked) [NNRTI compound 7]
binding of HIV reverse transcriptase and correct dNTP to biosensor coated with primer-template ([2]; NNRTI 40 μM): distinct peaks for binding

[Cl][Co][Cl] [Co2+, cobalt chloride]
binding of Klenow exo(−) and dCTP to biosensor coated with ssDNA primer-template [1, 4]: transient peak | nucleotide incorporation by Klenow exo(−) in the absence of Mg2+ [1, 5]: complete nucleotide incorporation

Nc1ncnc2c1ncn2[C@H]1C[C@H](O)[C@@H](COP(=O)(O)OP(=O)(O)OP(=O)(O)O)O1 [dATP, 2′-deoxyadenosine-5′-triphosphate]
pre-steady state rate constant (Klenow): 0.0106
